In article PMC4669708 (Cell Death & Disease, 2015):

How the values were obtained:
Assay in all cases: c-ponatinib pulldown LC-MS/MS
Type in all cases: binding
MAP4K2 = target: T1, MAP4K2 (Homo sapiens, UniProt Q12851)
T1 sequence (Q12851 1-820): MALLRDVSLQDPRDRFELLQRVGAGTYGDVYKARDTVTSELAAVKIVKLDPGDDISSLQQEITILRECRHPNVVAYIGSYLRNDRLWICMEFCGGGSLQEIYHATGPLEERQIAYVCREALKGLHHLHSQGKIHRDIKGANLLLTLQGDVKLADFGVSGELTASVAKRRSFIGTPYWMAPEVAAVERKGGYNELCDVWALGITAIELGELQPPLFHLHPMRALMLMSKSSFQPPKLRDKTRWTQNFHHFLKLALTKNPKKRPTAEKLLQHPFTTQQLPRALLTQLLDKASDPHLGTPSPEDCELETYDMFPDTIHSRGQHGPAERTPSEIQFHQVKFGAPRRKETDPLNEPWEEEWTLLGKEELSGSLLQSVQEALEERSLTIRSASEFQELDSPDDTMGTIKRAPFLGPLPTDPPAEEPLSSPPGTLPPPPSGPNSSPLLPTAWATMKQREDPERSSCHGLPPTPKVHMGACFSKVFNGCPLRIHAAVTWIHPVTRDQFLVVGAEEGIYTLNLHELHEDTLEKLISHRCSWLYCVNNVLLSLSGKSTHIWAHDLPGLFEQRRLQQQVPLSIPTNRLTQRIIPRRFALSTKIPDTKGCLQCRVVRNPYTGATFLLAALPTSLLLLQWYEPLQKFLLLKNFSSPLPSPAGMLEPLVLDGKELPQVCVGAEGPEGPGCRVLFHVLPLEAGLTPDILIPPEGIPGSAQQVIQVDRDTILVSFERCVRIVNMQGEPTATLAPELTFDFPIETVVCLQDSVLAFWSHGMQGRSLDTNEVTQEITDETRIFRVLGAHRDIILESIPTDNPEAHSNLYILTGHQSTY
Summary of the method: (§1)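 Spectral counts and search-engine scores from LC-MS/MS of tryptic eluates gave drug-protein specificity P-values. Eluates came from duplicate pulldowns of 10 mg lysate on 25 nmol immobilized c-ponatinib. Competition was the ratio of median counts with versus without free compound.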

HSPA9 = HSPA9 (Homo sapiens, UniProt P38646)
Chain of HSPA9 (P38646 47-679): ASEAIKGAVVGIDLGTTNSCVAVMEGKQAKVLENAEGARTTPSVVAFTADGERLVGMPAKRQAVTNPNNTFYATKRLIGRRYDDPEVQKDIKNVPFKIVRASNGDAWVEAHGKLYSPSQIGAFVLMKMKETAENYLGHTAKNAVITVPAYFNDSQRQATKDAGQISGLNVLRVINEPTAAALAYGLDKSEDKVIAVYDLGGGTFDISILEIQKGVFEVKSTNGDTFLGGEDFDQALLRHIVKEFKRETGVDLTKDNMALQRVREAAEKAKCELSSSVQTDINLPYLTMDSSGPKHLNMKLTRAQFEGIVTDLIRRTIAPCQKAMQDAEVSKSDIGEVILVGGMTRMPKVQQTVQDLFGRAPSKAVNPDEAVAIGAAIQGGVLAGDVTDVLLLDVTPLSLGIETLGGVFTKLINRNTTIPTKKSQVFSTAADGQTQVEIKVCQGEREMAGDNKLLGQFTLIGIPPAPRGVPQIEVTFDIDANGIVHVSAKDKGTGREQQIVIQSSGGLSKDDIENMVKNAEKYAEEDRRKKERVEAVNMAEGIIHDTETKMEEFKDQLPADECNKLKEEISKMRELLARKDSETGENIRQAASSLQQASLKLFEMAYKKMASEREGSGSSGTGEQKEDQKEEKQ
Summary of the method: as §1

MAPK12 = target: T2, MAPK12 (Homo sapiens, UniProt P53778)
T2 sequence (P53778 1-367): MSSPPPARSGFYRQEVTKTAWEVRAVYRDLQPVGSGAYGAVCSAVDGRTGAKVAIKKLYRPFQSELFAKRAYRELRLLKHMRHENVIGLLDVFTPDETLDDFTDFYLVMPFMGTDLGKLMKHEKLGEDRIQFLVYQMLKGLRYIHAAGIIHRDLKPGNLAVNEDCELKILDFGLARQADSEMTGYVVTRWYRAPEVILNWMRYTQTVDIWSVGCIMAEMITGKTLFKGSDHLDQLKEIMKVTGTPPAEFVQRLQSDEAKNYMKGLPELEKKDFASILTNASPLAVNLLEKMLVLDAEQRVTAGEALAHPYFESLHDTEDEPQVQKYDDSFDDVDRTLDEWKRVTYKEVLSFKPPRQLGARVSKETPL
Summary of the method: as §1

ABL1 = ABL1 (Homo sapiens, UniProt P00519)
Chain of ABL1 (P00519 whole entry): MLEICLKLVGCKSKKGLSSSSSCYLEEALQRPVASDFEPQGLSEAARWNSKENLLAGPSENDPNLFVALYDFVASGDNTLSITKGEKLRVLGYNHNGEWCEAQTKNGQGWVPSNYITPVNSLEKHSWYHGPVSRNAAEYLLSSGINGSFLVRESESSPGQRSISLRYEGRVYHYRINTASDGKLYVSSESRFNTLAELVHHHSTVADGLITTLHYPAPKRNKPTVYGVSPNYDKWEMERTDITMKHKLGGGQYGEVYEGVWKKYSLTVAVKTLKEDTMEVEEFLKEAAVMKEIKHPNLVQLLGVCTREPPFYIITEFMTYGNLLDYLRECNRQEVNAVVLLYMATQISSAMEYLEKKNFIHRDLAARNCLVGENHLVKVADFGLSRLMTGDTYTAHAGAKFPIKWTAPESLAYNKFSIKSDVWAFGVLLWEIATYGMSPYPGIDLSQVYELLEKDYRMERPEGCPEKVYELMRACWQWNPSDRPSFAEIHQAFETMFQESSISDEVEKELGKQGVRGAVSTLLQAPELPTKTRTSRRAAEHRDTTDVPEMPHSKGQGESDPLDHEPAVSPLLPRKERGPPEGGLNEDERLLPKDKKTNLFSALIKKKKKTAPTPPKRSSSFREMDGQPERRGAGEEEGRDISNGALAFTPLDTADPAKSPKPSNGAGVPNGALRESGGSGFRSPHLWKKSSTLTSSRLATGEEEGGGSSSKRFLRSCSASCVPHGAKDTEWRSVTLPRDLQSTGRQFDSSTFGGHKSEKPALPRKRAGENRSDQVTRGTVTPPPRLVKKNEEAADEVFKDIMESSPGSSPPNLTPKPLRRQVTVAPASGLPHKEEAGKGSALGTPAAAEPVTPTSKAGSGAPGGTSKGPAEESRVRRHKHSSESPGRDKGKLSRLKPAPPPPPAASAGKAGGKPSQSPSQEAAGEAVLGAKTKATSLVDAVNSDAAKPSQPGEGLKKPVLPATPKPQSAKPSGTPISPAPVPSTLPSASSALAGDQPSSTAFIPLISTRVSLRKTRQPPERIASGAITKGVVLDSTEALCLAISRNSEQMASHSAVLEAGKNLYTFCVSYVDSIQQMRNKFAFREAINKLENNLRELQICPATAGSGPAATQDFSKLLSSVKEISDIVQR
Summary of the method: as §1

Av. SC comp. (MAP4K2; + free ponatinib): 0 | Total SC comp. (MAP4K2; + free ponatinib): 0 | Av. SC (MAP4K2; no competitor): 2.5 | Total SC (MAP4K2; no competitor): 10 | Av. SC comp. (HSPA9; + free ponatinib): 0 | Total SC comp. (HSPA9; + free ponatinib): 0 | Av. SC (HSPA9; no competitor): 3.25 | Total SC (HSPA9; no competitor): 13 | Av. SC comp. (MAPK12; + free ponatinib): 3.75 | Total SC comp. (MAPK12; + free ponatinib): 15 | Av. SC (MAPK12; no competitor): 10.75 | Total SC (MAPK12; no competitor): 43 | Av. SC comp. (ABL1; + free ponatinib): 0 | Total SC comp. (ABL1; + free ponatinib): 0 | Av. SC (ABL1; no competitor): 13.75 | Total SC (ABL1; no competitor): 55
SMILES: Cc1ccc(C(=O)Nc2ccc(CN3CCN(CCCN)CC3)c(C(F)(F)F)c2)cc1C#Cc1cnc2cccnn12 [c-ponatinib]
